# Assay results published in paper PMC10571957, “αV-Integrin-Dependent Inhibition of Glioblastoma Cell Migration, Invasion and Vasculogenic Mimicry by the uPAcyclin Decapeptide” (Cancers, 2023).
# “And” between values parts separate entries of the source, which are not always exact repeats. Identical values can stand only once.
# Tests used:
# [1] = test system: U251-MG cells; test: Vasculogenic mimicry (tube formation on Geltrex), U251-MG; assay type: cell-based, human; conditions: 24 h
# Experimental: The tube formation assay was performed in 96-well plates pre-coated with 50 µL/well of Geltrex^TM (Thermofisher, Scientific, Waltham, MA, USA), and polymerized for 30 min at 37 °C. Briefly, 3 × 10^4 U87-MG, 1.5 × 10^4 U251, and 1 × 10^4 C6 cells/100µL/well were plated onto Geltrex^TM and monitored at 37 °C for the indicated times. The specific effectors were included at time 0. The formation of vascular-like structures by Geltrex^TM-plated U87-MG and U251-MG cells was monitored for 24 h, whereas C6 cells were tested for 16 h. The evaluation of the branching point number, defined as the intersection of at least 3 tubes [24], was performed using the Inverted Microscope DMI Leica 6000 for the U87-MG and U251-MG cells and the Inverted Microscope Axiovert 25 for the C6 cells. At the indicated times, the number of “branching points” was assessed in 4/5 random fields using the ImageJ 1.52a Software.
# Figure 8 Vascular mimicry formation and VE-cadherin expression inhibited by uPAcyclin in U251-MG cells. […] (B) The quantitation of the branching point number is described in the legend to Figure 6B. […] The densitometric quantitation of VE-cadherin bands is shown (right panel) (* p-value < 0.05; *** p-value < 0.001).
# [2] = test system: HT1080 fibrosarcoma cells; conditions: cited from earlier work
# Description: Thus, in the present work, we investigated the effects of the anti-migratory uPAcyclin decapeptide, binding to the αV integrin subunit. This cyclic decapeptide is derived from a non-catalytic region of the human urokinase (uPA) plasminogen activator. The growth factor domain (GFD, residues 1-49) and the connecting peptide region (CP, residues 132-158) confer to the full uPA a clearcut motogen activity. While the GFD binds to the urokinase receptor (uPAR), the CP region binds to the αV integrin subunit. […] The primary sequence of this cyclic peptide, derived from the connecting peptide region (CP) of the serin protease urokinase (uPA), is reported in Figure 1A. As assessed by a previous conformational analysis of uPAcyclin performed in water solution, about half of the peptide molecules ...
# [3] = test system: U87-MG cells; test: Boyden chamber migration (chemotaxis), U87-MG; assay type: cell-based, human; conditions: for % of the basal: sheet all data, Average all expts; for % of basal, average / % of basal / cells n°/field / % of basal (T-TEST list): sheet data scrambled; for % of basal, average: Average 2 expts
# Experimental: (§1) The migration and invasion assays were performed using Boyden chambers and 8 µm pore size PVP-free filters coated with 50 µg/mL of collagen type VI (Sigma), as previously described. For the invasion assays, collagen-coated filters were further coated with 50 µg/mL Matrigel^TM (Sigma). Briefly, 11 × 10^4 U87-MG, 4 × 10^4 U251-MG, or 4 × 10^4 U138-MG/sample were pre-treated for 40 min at 37 °C with the indicated effectors. Then, the cells were allowed to migrate for 3 h or to invade for 5 h at 37 °C toward 5% FBS in DMEM/0.1% BSA. At the end of both assays, the cells on the lower filter surface were fixed, stained with haematoxylin, and counted under an optical microscope (Zeiss Axiophot, Carl Zeiss, Milan, Italy) at 20× magnification. The migration and invasion experiments were conducted in triplicate for U87-MG and in duplicate for U251-MG and U138-MG. The migrated or invaded cells were reported as percentage of basal migration or invasion in the presence of DMEM/0.1% BSA, taken as 100%, and analyzed as reported in Section 2.11.
# (§2) Figure 3 Inhibition of U87-MG, U251-MG, and U138-MG GBM cellular migration by uPAcyclin. Quantitative analysis of U87-MG (A), U251-MG (B), and U138-MG (C) directional migration. A total of 11 × 10^4 U87-MG/sample or 4 × 10^4 U251-MG or U138-MG/sample were pre-treated for 40 min at 37 °C with uPAcyclin or S-peptide at the indicated concentrations, anti-αV polyclonal (anti-αV Pclonal) or monoclonal (anti-αV MoAb) antibody, or anti-GAPDH, and anti-α2 monoclonal antibody (anti-α2 MoAb), and then assayed in Boyden chambers at 37 °C, either for basal (BSA) or directional 5% FBS-dependent migration for 3 h at 37 °C. At the end of incubation, the filters were processed as described in Methods. Basal migration was taken as 100% and all values were calculated relative to that (* p-value < 0.05; ** p-value < 0.005; *** p-value < 0.001).
# [4] = test system: U251-MG cells; test: Boyden chamber migration (chemotaxis), U251-MG; assay type: cell-based, human; conditions: for migrated cells n°/field / migration, % of basal / migration, % of basal, average 2 expts / migration, % of basal, average expt 1 / migration, % of basal, average expt 2 / migration, % of basal, T-test list: sheet data scrambled; for migration, % of basal, average 2 expts: mean of 2 expts; for migration, % of basal, average expt 1: mean of expt 1; for migration, % of basal, average expt 2: mean of expt 2; for migration, % of basal, T-test list: single replicates
# Experimental: as §1, §2
# [5] = 10pM, Expt n°2, replicate 1 (as labelled)
# [6] = 10pM, Expt n°2, replicate 2 (as labelled)
# [7] = 1nM, Expt n°2, replicate 1 (as labelled)
# [8] = 1nM, Expt n°2, replicate 2 (as labelled)
# [9] = 100 nM, 5% FBS, 3 h, expt 1, duplicates
# [10] = 100 nM, 5% FBS, 3 h, expt 2, duplicates
# [11] = 1 nM, 5% FBS, 3 h, expt 1, duplicates
# [12] = 1 nM, 5% FBS, 3 h, expt 2, duplicates
substance,measurement,setting,value
Ac-K^1P[ESPPEELK^10]-NH2 (sidechain bridge or staple) [uPAcyclin],branching number per field decreased to,[1]; 1 nM,20%
same,branching number per field decreased to,[1]; 100 nM,15%
same,lung metastases,"[2]; mice injected with HT1080 fibrosarcoma cells, ref [29]",prevent lung metastases
same,metastatic lung spreading,"[2]; nude mice, ref [25]",markedly inhibits metastatic lung spreading in nude mice
same,inhibition of migration,"[3]; 1 nM, U87-MG, 5% FBS, 3 h",70–80%
same,"migration, in words","[3]; 100 nM, U87-MG, 5% FBS, 3 h",below background levels
same,% of the basal,[3]; 10pM,168%
same,% of the basal,[3]; 1nM,119%
same,% of the basal,[3]; 100nM,87%
same,"% of basal, average",[3]; 10pM,143.5%
same,% of basal,"[3]; 10pM, Expt n°1, replicate 1",133%
same,cells n°/field,"[3]; 10pM, Expt n°1, replicate 1",14 cells n°/field
same,% of basal,"[3]; 10pM, Expt n°1, replicate 2",143%
same,cells n°/field,"[3]; 10pM, Expt n°1, replicate 2",15 cells n°/field
same,% of basal,[3]; [5],152%
same,cells n°/field,[3]; [5],16 cells n°/field
same,% of basal,[3]; [6],133%
same,cells n°/field,[3]; [6],14 cells n°/field
same,% of basal (T-TEST list),"[3]; 10 pM, T-TEST list value 1",143
same,% of basal (T-TEST list),"[3]; 10 pM, T-TEST list value 2",152
same,% of basal (T-TEST list),"[3]; 10 pM, T-TEST list value 3",133
same,% of basal (T-TEST list),"[3]; 10 pM, T-TEST list value 4",143
same,"% of basal, average",[3]; 1nM,131%
same,% of basal,"[3]; 1nM, Expt n°1, replicate 1",124%
same,cells n°/field,"[3]; 1nM, Expt n°1, replicate 1",13 cells n°/field
same,% of basal,"[3]; 1nM, Expt n°1, replicate 2",124%
same,cells n°/field,"[3]; 1nM, Expt n°1, replicate 2",13 cells n°/field
same,% of basal,[3]; [7],143%
same,cells n°/field,[3]; [7],15 cells n°/field
same,% of basal,[3]; [8],171%
same,cells n°/field,[3]; [8],18 cells n°/field
same,% of basal (T-TEST list),"[3]; 1 nM, T-TEST list value 1",133
same,% of basal (T-TEST list),"[3]; 1 nM, T-TEST list value 2",143
same,% of basal (T-TEST list),"[3]; 1 nM, T-TEST list value 3",124
same,% of basal (T-TEST list),"[3]; 1 nM, T-TEST list value 4",124
same,inhibition of migration,"[4]; 1 nM, U251-MG, 5% FBS, 3 h",70–80%
same,"migration, % of the basal, average all expts",[4]; 1 nM,99%
same,"migration, in words","[4]; 100 nM, U251-MG, 5% FBS, 3 h",below background levels
same,"migration, % of the basal, average all expts",[4]; 100 nM,83%
same,migrated cells n°/field,[4]; [9],12 cells n°/field and 13 cells n°/field
same,"migration, % of basal",[4]; [9],86% and 93%
same,migrated cells n°/field,[4]; [10],27 cells n°/field and 21 cells n°/field
same,"migration, % of basal",[4]; [10],123% and 95%
same,"migration, % of basal, average 2 expts",[4]; 100 nM,99.2955%
same,"migration, % of basal, average expt 1",[4]; 100 nM,89.5%
same,"migration, % of basal, average expt 2",[4]; 100 nM,109.091%
same,"migration, % of basal, T-test list",[4]; 100 nM,86 and 93 and 95
"Ac-PS[EELKPEPK]-NH2 (sidechain bridge or staple) [S-uPAcyclin, scrambled control peptide]",% of the basal,[3]; 10pM,169%
same,% of the basal,[3]; 1nM,183%
same,% of the basal,[3]; 100nM,160%
same,% of basal (T-TEST list),"[3]; 10 pM, T-TEST list value 1",171
same,% of basal (T-TEST list),"[3]; 10 pM, T-TEST list value 2",152
same,% of basal (T-TEST list),"[3]; 10 pM, T-TEST list value 3",191
same,% of basal (T-TEST list),"[3]; 10 pM, T-TEST list value 4",162
same,% of basal (T-TEST list),"[3]; 1 nM, T-TEST list value 1",171
same,% of basal (T-TEST list),"[3]; 1 nM, T-TEST list value 2",190
same,% of basal (T-TEST list),"[3]; 1 nM, T-TEST list value 3",191
same,% of basal (T-TEST list),"[3]; 1 nM, T-TEST list value 4",181
same,% of basal (T-TEST list),"[3]; 100nM, T-TEST list value 2",158
same,% of basal (T-TEST list),"[3]; 100nM, T-TEST list value 3",158
same,% of basal (T-TEST list),"[3]; 100nM, T-TEST list value 4",162
same,"effect on migration, in words","[3]; up to 100 nM, U87-MG (Figure 3A)",ineffective up to 100 nM
same,"migration, % of the basal, average all expts",[4]; 1 nM,176%
same,migrated cells n°/field,[4]; [11],28 cells n°/field and 26 cells n°/field
same,"migration, % of basal",[4]; [11],200% and 186%
same,migrated cells n°/field,[4]; [12],32 cells n°/field and 38 cells n°/field
same,"migration, % of basal",[4]; [12],145% and 172%
same,"migration, % of basal, average 2 expts",[4]; 1 nM,176.045%
same,"migration, % of basal, average expt 1",[4]; 1 nM,193%
same,"migration, % of basal, average expt 2",[4]; 1 nM,159.091%
same,"migration, % of basal, T-test list",[4]; 1 nM,200 and 186 and 145 and 172
same,"migration, % of the basal, average all expts",[4]; 100 nM,157%
same,migrated cells n°/field,[4]; [9],23 cells n°/field and 20 cells n°/field
same,"migration, % of basal",[4]; [9],164% and 143%
same,migrated cells n°/field,[4]; [10],35 cells n°/field and 36 cells n°/field
same,"migration, % of basal",[4]; [10],159% and 163%
same,"migration, % of basal, average 2 expts",[4]; 100 nM,157.432%
same,"migration, % of basal, average expt 1",[4]; 100 nM,153.5%
same,"migration, % of basal, average expt 2",[4]; 100 nM,161.364%
same,"migration, % of basal, T-test list",[4]; 100 nM,164 and 143 and 159
